Here are results for 26 compounds from patent publication US9790221B2, “Heteroaryl compounds as IRAK inhibitors and uses thereof” (Merck Patent GmbH, priority 2014, dated 2017).

Where a name gives a salt, the structure may show the parent alone. Bounds are passed on as bounds.

As a reminder, the IC50 is the concentration that gives 50% inhibition.

The subject of assay [1] is TLR7 induced IL-6 secretion in human mononuclear cells (PBMC's). Kind of assay: TLR7 induced IL-6 in human PBMC's. It counts as cell-based. The conditions noted are these: Homo sapiens, PBMC, read-out: TLR7 induced IL-6 secretion in hPBMC's (IC50). Here is the method:
TLR7 Induced IL-6 in Human PBMC's
Human PBMC assay was used as one of the functional assay a to monitor the activity of IRAK1 and IRAK4 small molecule inhibitors on TLR7 induced IL-6 secretion in human mononuclear cells (PBMC's). Human PBMCs were prepared from buffy coats (whole blood enriched with leukocytes and platelets) obtained from healthy volunteers used either fresh or frozen are plated in assay media (RPMI+2% P/S/L-glu+10% HI-FBS) and pre-treated with compounds in DMSO/media (range of concentrations from 25 uM to 0.4 nM) or controls (0.25% DMSO) for 30 minutes at 37° C. in assay media. Following pre-treatment with IRAK1 and IRAK4 inhibitors, PBMC's were stimulated with TLR7 specific ligand (2 uM) overnight (16-18 hrs) at 37° C. After incubation supernatant was transferred to 384 well PE AlphaPlate-384 (6005350) and IL-6 is quantified using Perkin Elmer IL-6 Alpha LISA kit (AL223C). Plates were read on an Envision® plate reader with Alpha Technology®.

Assay [2] addresses IRAK1 (His-TEV-IRAK1 (194-712)) (Homo sapiens (Human), UniProt P51617). Kind of assay: IRAK1 enzymatic assay. Type of assay: biochemical. The gist of the method: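 Compounds ([…] down to 1 nM) were incubated 3 h at 30° C with His-TEV-IRAK1 (194-712, 15 ng/well) and 1 μM [33P]-labelled ATP in 50 mM Hepes pH 7.0, 10 mM MgCl2. After EDTA stop and washing, the retained autophosphorylation signal was measured by scintillation in streptavidin-coated plates.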

The target in another assay is IRAK4 (Homo sapiens (Human), UniProt Q9NWZ3). Kind of assay: IRAK4 enzymatic assay. It counts as biochemical. The gist of the method: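 Radiometric streptavidin FlashPlate read: 3 h, 30° C incubation of His-TEV-IRAK4 (20 ng/well), STK1-biotin substrate (300 nM) and ATP (2 μM, [^33P]-labelled) in Hepes pH 7.0, MgCl2 10 mM, MnCl2 5 mM. Compounds from 20 µM down to 1 nM, 2% DMSO controls; reaction quenched with EDTA.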
IRAK4, sequence (Q9NWZ3 whole entry): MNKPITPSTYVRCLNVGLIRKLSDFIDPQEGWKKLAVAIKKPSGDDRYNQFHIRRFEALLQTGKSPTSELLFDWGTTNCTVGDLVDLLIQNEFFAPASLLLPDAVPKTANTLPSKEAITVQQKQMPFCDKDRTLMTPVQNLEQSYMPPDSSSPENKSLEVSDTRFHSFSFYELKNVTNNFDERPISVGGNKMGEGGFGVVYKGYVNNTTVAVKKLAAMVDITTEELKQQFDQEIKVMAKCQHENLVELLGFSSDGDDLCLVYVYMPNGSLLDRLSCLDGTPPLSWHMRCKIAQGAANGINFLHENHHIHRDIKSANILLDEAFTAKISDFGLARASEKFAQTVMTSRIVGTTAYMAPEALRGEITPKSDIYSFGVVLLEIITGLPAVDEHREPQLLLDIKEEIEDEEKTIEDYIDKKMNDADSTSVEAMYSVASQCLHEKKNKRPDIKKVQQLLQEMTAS

IRAK1 (His-TEV-IRAK1 (194-712)), sequence (P51617 194-712): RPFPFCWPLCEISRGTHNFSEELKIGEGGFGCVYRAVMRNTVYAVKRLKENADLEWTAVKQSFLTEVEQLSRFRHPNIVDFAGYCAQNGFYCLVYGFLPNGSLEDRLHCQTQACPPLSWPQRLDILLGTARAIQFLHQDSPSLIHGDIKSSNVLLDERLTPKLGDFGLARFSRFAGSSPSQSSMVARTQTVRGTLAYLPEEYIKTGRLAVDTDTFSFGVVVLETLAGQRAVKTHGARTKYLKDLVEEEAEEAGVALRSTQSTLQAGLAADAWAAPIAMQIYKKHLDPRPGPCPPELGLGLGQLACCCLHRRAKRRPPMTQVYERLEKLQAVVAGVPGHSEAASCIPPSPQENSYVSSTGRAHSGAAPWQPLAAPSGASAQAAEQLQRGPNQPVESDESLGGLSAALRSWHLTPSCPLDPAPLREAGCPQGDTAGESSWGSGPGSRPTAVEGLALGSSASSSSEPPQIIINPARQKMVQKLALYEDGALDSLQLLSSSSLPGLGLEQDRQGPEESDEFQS

For `CC(C)Nc1nc(-c2cccc(-c3cnn(C)c3)c2)ncc1-c1nnc(C(=O)N2CC[C@@H](O)C2)s1` [Example 16, ((R)-3-Hydroxy-pyrrolidin-1-yl)-(5-{4-isopropylamino-2-[3-(1-methyl-1H-pyrazol-4-yl)-phenyl]-pyrimidin-5-yl}-[1,3,4]thiadiazol-2-yl)-methanone], the IC50 in assay [1] is 100 to 1000 nM; in assay [2], 100 to 1000 nM; on IRAK4, less than 100 nM.

Regarding `Cc1nnc(-c2cnc(-c3cccc(-c4cnn(C)c4)c3)nc2NC2CCCNC2)s1` (stereo not drawn) [Example 17, [2-[3-(1-Methyl-1H-pyrazol-4-yl)-phenyl]-5-(5-methyl-[1,3,4]thiadiazol-2-yl)-pyrimidin-4-yl]-piperidin-3-yl-amine Hydrochloride], the half-inhibitory concentration (IC50) is 100 to 1000 nM in assay [1], more than 5000 nM in assay [2] and less than 100 nM on IRAK4.

On to `COC(=O)c1nnc(-c2cnc(-c3cccc(-c4cnn(C)c4)c3)nc2NC2CCCNC2)s1` (stereo not drawn) [Example 18, 5-[2-[3-(1-Methyl-1H-pyrazol-4-yl)-phenyl]-4-(piperidin-3-ylamino)-pyrimidin-5-yl]-[1,3,4]thiadiazole-2-carboxylic Acid Methyl Ester Hydrochloride], for which the values for the IC50 (in assay [1]; in assay [2]; at IRAK4) were 100 to 1000 nM, more than 5000 nM and less than 100 nM, respectively.

Regarding `COC(=O)c1nnc(-c2cnc(-c3cccc(-c4cnn(C)c4)c3)nc2NCC2CNC2)s1` [Example 19, 5-{4-[(Azetidin-3-ylmethyl)-amino]-2-[3-(1-methyl-1H-pyrazol-4-yl)-phenyl]-pyrimidin-5-yl}-[1,3,4]thiadiazole-2-carboxylic Acid Methyl Ester Trifluoroacetate], the IC50 was 1000 to 5000 nM in assay [1], more than 5000 nM in assay [2] and 100 to 1000 nM against IRAK4.

Take `Cn1cc(-c2cccc(-c3ncc(-c4nnc(C(=O)N5CC[C@@H](O)C5)s4)c(NC4CCCNC4)n3)c2)cn1` (stereo partly drawn) [Example 20, ((R)-3-Hydroxy-pyrrolidin-1-yl)-{5-[2-[3-(1-methyl-1H-pyrazol-4-yl)-phenyl]-4-(piperidin-3-ylamino)-pyrimidin-5-yl]-[1,3,4]thiadiazol-2-yl}-methanone Hydrochloride]: the results for the half-maximal inhibitory concentration (IC50) (in assay [1]; in assay [2]; against IRAK4) were 100 to 1000 nM, 100 to 1000 nM and 1000 to 5000 nM, respectively.

On to `CC(C)Nc1cc(-c2cccc(-c3cnn(C)c3)c2)ncc1-c1nnc(C(=O)N2CC[C@@H](O)C2)s1` [Example 21, ((R)-3-Hydroxy-pyrrolidin-1-yl)-(5-{4-isopropylamino-6-[3-(1-methyl-1H-pyrazol-4-yl)-phenyl]-pyridin-3-yl}-[1,3,4]thiadiazol-2-yl)-methanone], for which the IC50 in assay [1] was 1000 to 5000 nM; in assay [2], 1000 to 5000 nM; against IRAK4, less than 100 nM.

On to `CC(C)Nc1cc(-c2cccc(-c3cnn(C)c3)n2)ncc1-c1nnc(C(=O)N2CC[C@@H](O)C2)s1` [Example 22, ((R)-3-Hydroxy-pyrrolidin-1-yl)-{5-[4-isopropylamino-6′-(1-methyl-1H-pyrazol-4-yl)-[2,2′]bipyridinyl-5-yl]-[1,3,4]thiadiazol-2-yl}-methanone], for which the IC50 in assay [1] is 100 to 1000 nM; in assay [2], 100 to 1000 nM; at IRAK4, less than 100 nM.

In the case of `Cn1cc(-c2cccc(-c3ncc(-c4cnn(C)c4)c(NC4CCCC4)n3)c2)cn1` [Example 32], the results for the IC50 (in assay [1]; in assay [2]; at IRAK4) were 1000 to 5000 nM, 100 to 1000 nM and less than 100 nM, respectively.

In the case of `Cn1cc(-c2cccc(-c3ncc(-c4cnn(C)c4)c(NCCCO)n3)c2)cn1` [Example 35], the half-inhibitory concentration (IC50) in assay [1] fell in the range of 1000 to 5000 nM; in assay [2], 100 to 1000 nM; on IRAK4, 100 to 1000 nM.

As to `Cn1cc(-c2cccc(-c3ncc(-c4cnn(C)c4)c(NCCN4CCOCC4)n3)c2)cn1` [Example 36], the IC50 in assay [1] lay in the range of 100 to 1000 nM; in assay [2], 1000 to 5000 nM; against IRAK4 it was 100 to 1000 nM.

For `Cn1cc(-c2cccc(-c3ncc(-c4cnn(C)c4)c(NCc4ccncc4)n3)c2)cn1` [Example 37], the 50% inhibitory concentration (IC50) was in the range of 1000 to 5000 nM in assay [1], 1000 to 5000 nM in assay [2] and 100 to 1000 nM at IRAK4.

Consider `Cn1cc(-c2cccc(-c3ncc(-c4cnn(C)c4)c(NCCN4CCOC4=O)n3)c2)cn1` [Example 38], for which the values for the IC50 (in assay [1]; in assay [2]; at IRAK4) were more than 5000 nM, 1000 to 5000 nM and 100 to 1000 nM, respectively.

For `Cn1cc(-c2cccc(-c3ncc(-c4cnn(C)c4)c(NC4CCOC4)n3)c2)cn1` (stereo not drawn) [Example 41], the IC50 is 1000 to 5000 nM in assay [1], 100 to 1000 nM in assay [2] and 100 to 1000 nM on IRAK4.

Consider `Cn1cc(-c2cccc(-c3ncc(-c4cnn(C)c4)c(NCC4CC(F)(F)C4)n3)c2)cn1` [Example 42], for which the half-maximal inhibitory concentration (IC50) (in assay [1]; in assay [2]; at IRAK4) was 100 to 1000 nM throughout.

In the case of `Cn1cc(-c2cccc(-c3ncc(-c4cnn(C)c4)c(NCC4(C)CCC4)n3)c2)cn1` [Example 43], the concentration for half-maximal inhibition (IC50) in assay [1] fell in the range of 1000 to 5000 nM; in assay [2], 100 to 1000 nM; against IRAK4, 100 to 1000 nM.

Turning to `Cn1cc(-c2cccc(-c3ncc(-c4cnn(C)c4)c(N[C@H]4CC[C@@H](N)CC4)n3)c2)cn1` [Example 44], the IC50 in assay [1] was 100 to 1000 nM; in assay [2] it was 100 to 1000 nM; against IRAK4, less than 100 nM.

Take `CN(CC1(F)COC1)c1nc(-c2cccc(-c3cnn(C)c3)c2)ncc1-c1cnn(C)c1` [Example 45]: the values for the concentration for half-maximal inhibition (IC50) (in assay [1]; in assay [2]; at IRAK4) were 1000 to 5000 nM, 1000 to 5000 nM and 100 to 1000 nM, respectively.

`Cn1cc(-c2cccc(-c3ncc(-c4cnn(C)c4)c(N[C@H]4C[C@@H](O)C4)n3)c2)cn1` [Example 46]: the IC50 was more than 5000 nM in assay [1], 100 to 1000 nM in assay [2] and 100 to 1000 nM at IRAK4.

`Cn1cc(-c2cccc(-c3ncc(-c4cnn(C)c4)c(N[C@H]4C[C@H](O)C4)n3)c2)cn1` [Example 47]: the figures for the half-inhibitory concentration (IC50) (in assay [1]; in assay [2]; against IRAK4) were more than 5000 nM, 1000 to 5000 nM and 100 to 1000 nM, respectively.

Take `Cn1cc(-c2cccc(-c3ncc(-c4cnn(C)c4)c(NC4CC(F)(F)C4)n3)c2)cn1` [Example 48]: the IC50 in assay [1] is more than 5000 nM; in assay [2], 100 to 1000 nM; against IRAK4, 100 to 1000 nM.

Consider `Cn1cc(-c2cccc(-c3ncc(-c4cnn(C)c4)c(N[C@H]4C[C@@H](S(C)(=O)=O)C4)n3)c2)cn1` [Example 49], for which the IC50 is more than 5000 nM in assay [1], 100 to 1000 nM in assay [2] and 100 to 1000 nM at IRAK4.

Consider `Cn1cc(-c2cccc(-c3ncc(-c4cnn(C)c4)c(NC4CC(F)C4)n3)c2)cn1` (stereo not drawn) [Example 50], for which the 50% inhibitory concentration (IC50) in assay [1] lay in the range of 1000 to 5000 nM; in assay [2], 100 to 1000 nM; against IRAK4, 100 to 1000 nM.

Take `Cn1cc(-c2cccc(-c3ncc(-c4cnn(C)c4)c(NCC4(O)COC4)n3)c2)cn1` [Example 52]: the IC50 is 1000 to 5000 nM in assay [1], 100 to 1000 nM in assay [2] and less than 100 nM against IRAK4.

On to `Cn1cc(-c2cccc(-c3ncc(-c4cnn(C)c4)c(NCC4(CO)CCC4)n3)c2)cn1` [Example 53], for which the half-inhibitory concentration (IC50) in assay [1] was 1000 to 5000 nM; in assay [2], 100 to 1000 nM; at IRAK4 it was less than 100 nM.

Consider `Cn1cc(-c2cccc(-c3ncc(-c4cnn(C)c4)c(NC[C@H](O)CO)n3)c2)cn1` [Example 54], for which the IC50 in assay [1] fell in the range of 1000 to 5000 nM; in assay [2], 100 to 1000 nM; against IRAK4 it was 100 to 1000 nM.

As for `Cn1cc(-c2cccc(-c3ncc(-c4cnn(C)c4)c(NCCN4CCS(=O)(=O)CC4)n3)c2)cn1` [Example 55], the values for the IC50 (in assay [1]; in assay [2]; against IRAK4) were 1000 to 5000 nM, 100 to 1000 nM and less than 100 nM, respectively.
